# Measurements taken from patent US20240316047A1, “INHIBITORS OF RNA HELICASE DHX9 AND USES THEREOF” (ACCENT THERAPEUTICS, INC., priority 2022, published 2024).
# Target: Human recombinant DHX9 protein (Homo sapiens (Human), UniProt Q08211)
# Assay: DHX9 ATPase assay (ADP-Glo)
# Format: biochemical
# Settings: for IC50: read-out: DHX9 Biochemical Inflection Point
# Human recombinant DHX9 protein, sequence (Q08211 whole entry): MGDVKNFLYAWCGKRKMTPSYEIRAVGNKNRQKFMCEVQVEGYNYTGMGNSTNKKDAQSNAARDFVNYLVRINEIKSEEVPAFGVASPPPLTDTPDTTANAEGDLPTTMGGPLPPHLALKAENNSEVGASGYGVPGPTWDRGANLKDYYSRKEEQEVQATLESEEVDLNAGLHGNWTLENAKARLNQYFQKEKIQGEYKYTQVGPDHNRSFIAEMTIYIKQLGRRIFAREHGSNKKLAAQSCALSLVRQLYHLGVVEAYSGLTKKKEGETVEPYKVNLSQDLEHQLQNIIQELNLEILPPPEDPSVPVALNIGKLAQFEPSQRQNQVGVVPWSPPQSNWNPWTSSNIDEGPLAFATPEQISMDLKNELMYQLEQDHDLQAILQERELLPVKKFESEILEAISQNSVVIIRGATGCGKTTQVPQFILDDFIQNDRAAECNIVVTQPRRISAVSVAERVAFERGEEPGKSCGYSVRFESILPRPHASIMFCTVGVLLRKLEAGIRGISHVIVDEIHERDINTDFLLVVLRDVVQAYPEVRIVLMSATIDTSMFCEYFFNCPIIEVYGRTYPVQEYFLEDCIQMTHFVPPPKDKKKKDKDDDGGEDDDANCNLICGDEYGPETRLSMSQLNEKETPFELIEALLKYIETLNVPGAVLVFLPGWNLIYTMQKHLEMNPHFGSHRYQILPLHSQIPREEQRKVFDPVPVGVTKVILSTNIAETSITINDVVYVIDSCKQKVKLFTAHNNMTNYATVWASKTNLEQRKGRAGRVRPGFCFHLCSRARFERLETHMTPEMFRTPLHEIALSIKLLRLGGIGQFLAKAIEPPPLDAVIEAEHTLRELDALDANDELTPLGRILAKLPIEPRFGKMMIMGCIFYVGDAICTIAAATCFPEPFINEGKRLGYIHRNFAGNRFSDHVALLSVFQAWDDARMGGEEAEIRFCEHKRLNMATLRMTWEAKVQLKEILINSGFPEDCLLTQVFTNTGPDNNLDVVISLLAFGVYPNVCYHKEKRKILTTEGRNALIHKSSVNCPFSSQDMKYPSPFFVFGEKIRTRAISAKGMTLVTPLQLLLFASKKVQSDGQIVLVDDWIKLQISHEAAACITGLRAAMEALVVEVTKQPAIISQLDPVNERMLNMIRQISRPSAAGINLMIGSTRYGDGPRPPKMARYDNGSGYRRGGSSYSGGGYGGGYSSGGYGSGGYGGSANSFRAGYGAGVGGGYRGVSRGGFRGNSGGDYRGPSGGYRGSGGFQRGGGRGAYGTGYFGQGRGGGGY
DHX9 Biochemical Max Inhibition,IC50 [nM],Compound
63.3,66.5,Cc1sc(C(=O)Nc2cc(Cl)cc(NS(C)(=O)=O)c2)cc1-c1ncc(N2CCCC(F)(F)C2)cc1F [Example 482]
69.7,84.7,CS(=O)(=O)Nc1cc(Cl)cc(NC(=O)c2cnn(-c3ncc(F)cc3OCc3cnco3)c2)c1 [Example 719]
77,2.3,COc1cc(F)cnc1-n1cc(C(=O)Nc2cc(Cl)cc(NS(C)(=O)=O)c2)cc1C [Example 393]
75.7,2,Cc1sc(C(=O)Nc2cc(Cl)cc(NS(C)(=O)=O)c2)cc1-c1ncc(C(C)(O)C2CN(C)C2)cc1F (stereo not shown) [Example 653]
82.6%,19.1,CC(O)c1cc(C(=O)Nc2cc(Cl)cc(NS(C)(=O)=O)c2)cn1-c1ccccn1 (stereo not shown) [Example 287]
68.5,2,Cc1sc(C(=O)Nc2cc(Cl)cc(NS(C)(=O)=O)c2)cc1-c1ncc(OC2CN(C)C2)cc1F [Example 635]
68.9%,78.6,CS(=O)(=O)Nc1cc(Cl)cc(NC(=O)c2cnn(-c3ncccc3Oc3ncccn3)c2)c1 [Example 196]
64.1%,4820,CS(=O)(=O)Nc1cc(F)cc(NC(=O)c2cc(Br)[nH]n2)c1 [Example 4]
84.6%,9.5,COCc1sc(C(=O)Nc2cc(Cl)cc(NS(C)(=O)=O)c2)cc1-c1ccccn1 [Example 234]
45.5,114,Cn1cc(C(=O)Nc2cc(Cl)cc(NS(C)(=O)=O)c2)cc1-c1ncc(F)cc1/C=C/c1cncc(F)c1 [Example 729]
87.8,12.6,Cn1cc(C(=O)Nc2cc(Cl)cc(NS(C)(=O)=O)c2)cc1-c1ncc(F)cc1OCc1nnnn1C [Example 625]
73.6%,8.4,CCS(=O)(=O)Nc1cc(Cl)cc(NC(=O)c2cc(-c3ncc(F)cc3C)cs2)c1 [Example 226]
70.6%,1.7,Cc1cc(C(=O)Nc2cc(Cl)cc(NS(C)(=O)=O)c2)cn1-c1ccc(N2CCOCC2)cn1 [Example 93]
61.7,17.4,Cn1cc(C(=O)Nc2cc(Cl)cc(NS(C)(=O)=O)c2)cc1-c1ncc(N2CCC(F)(F)C2)cn1 [Example 526]
59.5%,99,"Cc1cc(C(=O)Nc2cc(Br)cc(NS(C)(=O)=O)c2)cn1C1CCCCC1 [Example 85, N-(3-bromo-5-(methylsulfonamido)phenyl)-1-cyclohexyl-5-methyl-1H-pyrrole-3-carboxamide]"
71.8,26,Cc1sc(C(=O)Nc2cc(Cl)cc(NS(C)(=O)=O)c2)cc1-c1ncc(F)cc1-c1ccc(=O)n(C)c1 [Example 606]
75.7%,56.5,CS(=O)(=O)Nc1cc(Cl)cc(NC(=O)c2cc(-c3ncccc3C(F)(F)F)cs2)c1 [Example 223]
57.4%,9.6,CS(=O)(=O)Nc1cc(Cl)cc(NC(=O)c2cc(CN)n(-c3ccccn3)c2)c1 [Example 181]
69.7,15.9,CCOc1cc(F)cnc1-c1cc(C(=O)Nc2cc(Cl)cc(NS(C)(=O)=O)c2)cn1C [Example 561]
62.65,32.9,"Cn1cc(C(=O)Nc2cc(Cl)cc(NS(C)(=O)=O)c2)cc1-c1ncc(N2CC(C(F)(F)F)C2)cc1F [Example 524, N-(3-chloro-5-methanesulfonamidophenyl)-5-{3-fluoro-5-[3-(trifluoromethyl)azetidin-1-yl]pyridin-2-yl}-1-methyl-1H-pyrrole-3-carboxamide]"
76,18.1,Cn1cc(C(=O)Nc2cc(Cl)cc(NS(C)(=O)=O)c2)cc1-c1ccc(N2CC(F)C2)cn1 [Example 539]
58.2%,186,CS(=O)(=O)Nc1cc(Cl)cc(NC(=O)c2cnn(-c3ncccc3-c3cncnc3)c2)c1 [Example 387]
64.4%,13.1,CN1CCC(c2ccc(-n3cc(C(=O)Nc4cc(Cl)cc(NS(C)(=O)=O)c4)cn3)nc2)CC1=O (stereo not shown) [Example 266]
73,69.1,Cc1cc(C(=O)Nc2cc(Cl)cc(NS(C)(=O)=O)c2)cn1-c1ncc(N2CC(F)(F)C2)cc1OCC(F)(F)F [Example 708]
48.6%,9.9,CS(=O)(=O)Nc1cc(Br)cc(NC(=O)c2cnn(-c3ccc(N4CCOCC4)cn3)c2)c1 [Example 55]
58.4%,211,CC(Oc1cccnc1-n1cc(C(=O)Nc2cc(Cl)cc(NS(C)(=O)=O)c2)cn1)c1ccccc1 (stereo not shown) [Example 62]
70.6%,21.2,Cc1sc(C(=O)Nc2cc(Cl)cc(NS(C)(=O)=O)c2)cc1-c1ccc(C#N)cn1 [Example 377]
75.4,1050,Cc1sc(C(=O)Nc2cc(Cl)cc(NS(C)(=O)=O)c2)cc1-c1nccn1CCc1ccccc1 [Example 698]

DHX9 Biochemical Max Inhibition,IC50 [nM],Compound
65.3,3.8,CN1CC(Oc2cnc(-c3cc(C(=O)Nc4cc(Cl)cc(NS(C)(=O)=O)c4)cn3C)c(F)c2)C1 [Example 611]
84.1%,–,COc1ccc(-c2cc(C(=O)Nc3cc(Cl)cc(NS(C)(=O)=O)c3)sc2C)nc1 [Example 352]
66.8%,–,"Cc1cccnc1-c1cc(C(=O)Nc2cc(Cl)cc(NS(C)(=O)=O)c2)cn1CC(F)F [Example 143, N-(3-chloro-5-(methylsulfonamido)phenyl)-1-(2,2-difluoroethyl)-5-(3-methylpyridin-2-yl)-1H-pyrrole-3-carboxamide]"
61.1,67.9,CS(=O)(=O)Nc1cc(Cl)cc(NC(=O)c2cc(-c3ncc(N4CC(F)(F)C4)cc3F)cs2)c1 [Example 488]
77.2,10.2,Cc1cc(C(=O)Nc2cc(Cl)cc(NS(C)(=O)=O)c2)cn1-c1ccc(N2CCC2)cn1 [Example 397]
66.7%,–,Cc1cccnc1-c1cc(C(=O)Nc2cc(Cl)cc(NS(C)(=O)=O)c2)cn1C [Example 81]
67.1,51.1,Cc1sc(C(=O)Nc2cc(Cl)cc(NS(C)(=O)=O)c2)cc1N1CCCC1=O [Example 434]
99.9,30,Cn1cc(C(=O)Nc2cc(Cl)cc(NS(C)(=O)=O)c2)cc1-c1ccc(N2CCN(C(=O)C3CCC3)CC2)cn1 [Example 593]
56.4,67.3,Cn1cc(C(=O)Nc2cc(Cl)cc(NS(C)(=O)=O)c2)cc1-c1ncc(N2CCCC(F)(F)C2)cc1F [Example 483]
55.5%,–,CS(=O)(=O)Nc1cc(Cl)cc(NC(=O)c2cc(-c3ccccc3)cs2)c1 [Example 75]
60.3%,137,Cc1cccc(C#N)c1-n1cc(C(=O)Nc2cc(Br)cc(NS(C)(=O)=O)c2)cn1 [Example 44]
61.5,26.2,COc1cc(N2CC(F)(F)C2)cnc1-c1cc(C(=O)Nc2cc(Cl)cc(NS(=O)(=O)CCO)c2)sc1C [Example 528]
56.7%,335,CS(=O)(=O)Nc1cc(Cl)cc(NC(=O)c2cc3ccc(Cl)cn3c2)c1 [Example 299]
72.6,11.7,CCc1cncc(COc2cccnc2-c2cc(C(=O)Nc3cc(Cl)cc(NS(C)(=O)=O)c3)cn2C)c1 [Example 730]
57.2%,4020,COc1cccc2cc(C(=O)Nc3cc(Cl)cc(NS(C)(=O)=O)c3)sc12 [Example 303]
73.1,53.9,CSc1cnc(-n2cc(C(=O)Nc3cc(Cl)cc(NS(C)(=O)=O)c3)cc2C)nc1 [Example 658]
67.8,10.3,Cc1sc(C(=O)Nc2cc(Cl)cc(NS(C)(=O)=O)c2)cc1-c1ncc(N2CC(F)(F)C2)cc1C#N [Example 715]
79.7%,16,CS(=O)(=O)Nc1cc(Cl)cc(NC(=O)c2cc(-c3ncccc3NC(=O)C3CC3)cs2)c1 [Example 220]
75.7%,28,Cc1cc(C(=O)Nc2cc(Cl)cc(NS(C)(=O)=O)c2)cn1-c1ncccc1O [Example 281]
67.9%,58,"CS(=O)(=O)Nc1cc(Cl)cc(NC(=O)c2cnn(C3CCNCC3)c2)c1 [Example 145, N-(3-chloro-5-(methylsulfonamido)phenyl)-1-(piperidin-4-yl)-1H-pyrazole-4-carboxamide]"
61.5%,4830,CS(=O)(=O)Nc1cc(Cl)cc(NC(=O)c2cc3c(Cl)cccc3s2)c1 [Example 332]
87.9%,3.9,CS(=O)(=O)Nc1cc(Cl)cc(NC(=O)c2cnn(-c3ncccc3OCc3cncc(F)c3)c2)c1 [Example 186]
52.9,1510,Cc1sc(C(=O)Nc2cc(Cl)cc(NS(C)(=O)=O)c2)cc1-c1ncc(F)cc1N1CCC2(CC1)CC2 [Example 507]
78.1,12.5,Cn1cc(C(=O)Nc2cc(Cl)cc(NS(C)(=O)=O)c2)cc1-c1ccc(C2CCOCC2)cn1 [Example 704]
99.3,155,Cc1sc(C(=O)Nc2cc(Cl)cc(NS(C)(=O)=O)c2)cc1-c1ncc(N2CCC3(CC2)CC3)cc1F [Example 467]
59.8,37.1,Cn1cc(C(=O)Nc2cc(Cl)cc(NS(C)(=O)=O)c2)cc1-c1ncc(OC(C)(C)C)cc1F [Example 557]
81.6,10.8,COc1cc(N2CC(F)(F)C2)cnc1-n1cc(C(=O)Nc2cc(Cl)cc(NS(C)(=O)=O)c2)cc1C [Example 421]
